Assay results published in patent publication US9924716B2, “Molecules having pesticidal utility, and intermediates, compositions, and processes, related thereto” (Dow AgroSciences LLC, priority 2016, dated 2018).

Columns and labels:
[1] = test system: Beet Armyworm (Spodoptera exigua, LAPHEG) second instar larvae; assay: Bioassay on Beet Armyworm (BAW), 128-well diet tray assay; format: in vivo; settings: for pest or weed control at 50 µg/cm2: Beet Armyworm, Table ABC Biological Results, read-out: BAW rating; for mortality at 0.05 µg/cm2: 0.05 μg/cm^2 on artificial diet; for mortality at 0.05 µg/cm2 / mortality at 0.5 µg/cm2 / mortality at 5 µg/cm2: read-out: Percent control (or mortality) BAW; for mortality at 0.5 µg/cm2: 0.5 μg/cm^2 on artificial diet; for mortality at 5 µg/cm2: 5 μg/cm^2 on artificial diet
Experimental: (§1) Certain molecules disclosed in this document were tested against BAW, CEW, and CL using procedures described in the following examples. In the reporting of the results, the “BAW, CEW, & CL Rating Table” was used (See Table Section).
Bioassays on BAW were conducted using a 128-well diet tray assay. one to five second instar BAW larvae were placed in each well (3 mL) of the diet tray that had been previously filled with 1 mL of artificial diet to which 50 μg/cm^2 of the test molecule (dissolved in 50 μL of 90:10 acetone-water mixture) had been applied (to each of eight wells) and then allowed to dry. Trays were covered with a clear self-adhesive cover and held at 25° C., 14:10 light-dark for five to seven days. Percent mortality was recorded for the larvae in each well; activity in the eight wells was then averaged. The results are indicated in the table entitled “Table ABC: Biological Results” (See Table Section).
(§2) Bioassays on BAW and CL were conducted according to the procedures outlined in Example A: Bioassays on Beet Armyworm (“BAW”) and Cabbage Looper (“CL”) using the indicated concentrations.

[2] = test system: Cabbage Looper (Trichoplusia ni, TRIPNI) second instar larvae; assay: Bioassay on Cabbage Looper (CL), 128-well diet tray assay; format: in vivo; settings: for pest or weed control at 50 µg/cm2: Cabbage Looper, Table ABC Biological Results, read-out: CL rating; for mortality at 0.05 µg/cm2: 0.05 μg/cm^2 on artificial diet; for mortality at 0.05 µg/cm2 / mortality at 0.5 µg/cm2 / mortality at 5 µg/cm2: read-out: Percent control (or mortality) CL; for mortality at 0.5 µg/cm2: 0.5 μg/cm^2 on artificial diet; for mortality at 5 µg/cm2: 5 μg/cm^2 on artificial diet
Experimental: as §1
Bioassays on CL were conducted using a 128-well diet tray assay. one to five second instar CL larvae were placed in each well (3 mL) of the diet tray that had been previously filled with 1 mL of artificial diet to which 50 μg/cm^2 of the test molecule (dissolved in 50 μL of 90:10 acetone-water mixture) had been applied (to each of eight wells) and then allowed to dry. Trays were covered with a clear self-adhesive cover and held at 25° C., 14:10 light-dark for five to seven days. Percent mortality was recorded for the larvae in each well; activity in the eight wells was then averaged. The results are indicated in the table entitled “Table ABC: Biological Results” (See Table Section).
as §2

## C[C@@H](NC(=O)c1ccc(/C(F)=C/C(c2cc(Cl)c(Cl)c(Cl)c2)C(F)(F)F)cc1C(F)(F)F)NS(=O)(=O)CC(F)(F)F (stereo partly drawn) [F28, 4-((Z)-1,4,4,4-tetrafluoro-3-(3,4,5-trichlorophenyl)but-1-en-1-yl)-N—((S)-1-(2,2,2-trifluoroethylsulfonamido)ethyl)-2-(trifluoromethyl)benzamide]
[1]
  pest or weed control at 50 µg/cm2: 50 to 100%
[2]
  pest or weed control at 50 µg/cm2: 50 to 100%

## C[C@H](NC(=O)CC(F)(F)F)NC(=O)c1ccc(/C(F)=C/C(c2cc(Cl)c(Cl)c(Cl)c2)C(F)(F)F)cc1Cl (stereo partly drawn) [F7, 2-Chloro-4-((Z)-1,4,4,4-tetrafluoro-3-(3,4,5-trichlorophenyl)but-1-en-1-yl)-N—((R)-1-(3,3,3-trifluoropropanamido)ethyl)benzamide]
[1]
  mortality at 0.05 µg/cm2: 79%
  mortality at 0.5 µg/cm2: 100%
  mortality at 5 µg/cm2: 100%
  pest or weed control at 50 µg/cm2: 50 to 100%
[2]
  mortality at 0.05 µg/cm2: 100%
  mortality at 0.5 µg/cm2: 100%
  mortality at 5 µg/cm2: 100%
  pest or weed control at 50 µg/cm2: 50 to 100%

## Cc1cc(/C(F)=C/C(c2cc(Cl)c(Cl)c(Cl)c2)C(F)(F)F)ccc1C(=O)N[C@H](C)NC(=O)CC(F)(F)F (stereo partly drawn) [F33, 2-Methyl-4-((Z)-1,4,4,4-tetrafluoro-3-(3,4,5-trichlorophenyl)but-1-en-1-yl)-N—((R)-1-(3,3,3-trifluoropropanamido)ethyl)benzamide]
[1]
  mortality at 0.05 µg/cm2: 88%
  mortality at 0.5 µg/cm2: 100%
  mortality at 5 µg/cm2: 100%
  pest or weed control at 50 µg/cm2: 50 to 100%
[2]
  mortality at 0.05 µg/cm2: 100%
  mortality at 0.5 µg/cm2: 100%
  mortality at 5 µg/cm2: 100%
  pest or weed control at 50 µg/cm2: 50 to 100%

## C[C@H](NC(=O)CC(F)(F)F)NC(=O)c1ccc(/C(F)=C/C(c2cc(Cl)c(Cl)c(Cl)c2)C(F)(F)F)cc1 (stereo partly drawn) [FC1, 4-((Z)-1,4,4,4-Tetrafluoro-3-(3,4,5-trichlorophenyl)but-1-en-1-yl)-N—((R)-1-(3,3,3-trifluoropropanamido)ethyl)benzamide, reference compound]
[1]
  mortality at 0.05 µg/cm2: 0%
  mortality at 0.5 µg/cm2: 0%
  mortality at 5 µg/cm2: 7%
[2]
  mortality at 0.05 µg/cm2: 0%
  mortality at 0.5 µg/cm2: 0%
  mortality at 5 µg/cm2: 100%

## C[C@H](NC(=O)CCC(F)(F)F)NC(=O)c1ccc(/C(F)=C/C(c2cc(Cl)c(Cl)c(Cl)c2)C(F)(F)F)cc1 (stereo partly drawn) [FC2, 4-((Z)-1,4,4,4-Tetrafluoro-3-(3,4,5-trichlorophenyl)but-1-en-1-yl)-N—((R)-1-(4,4,4-trifluorobutanamido)ethyl)benzamide, reference compound]
[1]
  mortality at 0.05 µg/cm2: 0%
  mortality at 0.5 µg/cm2: 0%
  mortality at 5 µg/cm2: 100%
[2]
  mortality at 0.05 µg/cm2: 0%
  mortality at 0.5 µg/cm2: 6%
  mortality at 5 µg/cm2: 100%

## C[C@H](NC(=O)CCC(F)(F)F)NC(=O)c1ccc(/C(F)=C/C(c2cc(Cl)c(Cl)c(Cl)c2)C(F)(F)F)cc1Br (stereo partly drawn) [F3, 2-Bromo-4-((Z)-1,4,4,4-tetrafluoro-3-(3,4,5-trichlorophenyl)but-1-en-1-yl)-N—((R)-1-(4,4,4-trifluorobutanamido)ethyl)benzamide]
[1]
  mortality at 0.05 µg/cm2: 100%
  mortality at 0.5 µg/cm2: 100%
  mortality at 5 µg/cm2: 100%
  pest or weed control at 50 µg/cm2: 50 to 100%
[2]
  mortality at 0.05 µg/cm2: 100%
  mortality at 0.5 µg/cm2: 100%
  mortality at 5 µg/cm2: 100%
  pest or weed control at 50 µg/cm2: 50 to 100%

## C[C@@H](NC(=O)c1ccc(/C(F)=C/C(c2cc(Cl)c(Cl)c(Cl)c2)C(F)(F)F)cc1C(F)(F)F)NC(=O)C1(C#N)CC1 (stereo partly drawn) [PF31, N—((S)-1-(1-Cyanocyclopropane-1-carboxamido)ethyl)-4-((Z)-1,4,4,4-tetrafluoro-3-(3,4,5-trichlorophenyl)but-1-en-1-yl)-2-(trifluoromethyl)benzamide]
[1]
  pest or weed control at 50 µg/cm2: 50 to 100%
[2]
  pest or weed control at 50 µg/cm2: 50 to 100%

## Cc1cc(/C(F)=C/C(c2cc(Cl)c(Cl)c(Cl)c2)C(F)(F)F)ccc1C(=O)N[C@H](C)NC(=O)CCC(F)(F)F (stereo partly drawn) [F2, 2-Methyl-4-((Z)-1,4,4,4-tetrafluoro-3-(3,4,5-trichlorophenyl)but-1-en-1-yl)-N—((R)-1-(4,4,4-trifluorobutanamido)ethyl)benzamide]
[1]
  mortality at 0.05 µg/cm2: 100%
  mortality at 0.5 µg/cm2: 100%
  mortality at 5 µg/cm2: 100%
  pest or weed control at 50 µg/cm2: 50 to 100%
[2]
  mortality at 0.05 µg/cm2: 100%
  mortality at 0.5 µg/cm2: 100%
  mortality at 5 µg/cm2: 100%
  pest or weed control at 50 µg/cm2: 50 to 100%

## C[C@H](NC(=O)CCC(F)(F)F)NC(=O)c1ccc(/C(F)=C/C(c2cc(Cl)c(Cl)c(Cl)c2)C(C)(F)F)cc1C(F)(F)F (stereo partly drawn) [F10, 4-((Z)-1,4,4-Trifluoro-3-(3,4,5-trichlorophenyl)pent-1-en-1-yl)-N—((R)-1-(4,4,4-trifluorobutanamido)ethyl)-2-(trifluoromethyl)benzamide]
[1]
  pest or weed control at 50 µg/cm2: 50 to 100%
[2]
  pest or weed control at 50 µg/cm2: 50 to 100%

## C[C@H](NC(=O)NC1CC1)NC(=O)c1ccc(/C(F)=C/C(c2cc(Cl)c(Cl)c(Cl)c2)C(F)(F)F)cc1C(F)(F)F (stereo partly drawn) [F29, N—((S)-1-(3-cyclopropylureido)ethyl)-4-((Z)-1,4,4,4-tetrafluoro-3-(3,4,5-trichlorophenyl)but-1-en-1-yl)-2-(trifluoromethyl)benzamide]
[1]
  pest or weed control at 50 µg/cm2: 50 to 100%
[2]
  pest or weed control at 50 µg/cm2: 50 to 100%

## C[C@@H](NC(=O)c1ccc(/C(F)=C/C(c2cc(Cl)c(Cl)c(Cl)c2)C(F)(F)F)cc1C(F)(F)F)NC(=O)C1CC1 (stereo partly drawn) [F27, N—((R)-1-(cyclopropanecarboxamido)ethyl)-4-((Z)-1,4,4,4-tetrafluoro-3-(3,4,5-trichlorophenyl)but-1-en-1-yl)-2-(trifluoromethyl)benzamide]
[1]
  pest or weed control at 50 µg/cm2: 50 to 100%
[2]
  pest or weed control at 50 µg/cm2: 50 to 100%

## CCC(F)(F)C(/C=C(\F)c1ccc(C(=O)N[C@H](C)NC(=O)CC(F)(F)F)c(C(F)(F)F)c1)c1cc(Cl)c(Cl)c(Cl)c1 (stereo partly drawn) [F20, 4-((Z)-1,4,4-Trifluoro-3-(3,4,5-trichlorophenyl)hex-1-en-1-yl)-2-(trifluoromethyl)-N—((R)-1-(3,3,3-trifluoropropanamido)ethyl)benzamide]
[1]
  pest or weed control at 50 µg/cm2: 50 to 100%
[2]
  pest or weed control at 50 µg/cm2: 50 to 100%

## C[C@H](NC(=O)CC(F)(F)F)NC(=O)c1ccc(/C(F)=C/C(c2cc(Cl)c(Cl)c(Cl)c2)C(F)(F)F)cc1Br (stereo partly drawn) [F4, 2-Bromo-4-((Z)-1,4,4,4-tetrafluoro-3-(3,4,5-trichlorophenyl)but-1-en-1-yl)-N—((R)-1-(3,3,3-trifluoropropanamido)ethyl)benzamide]
[1]
  mortality at 0.05 µg/cm2: 100%
  mortality at 0.5 µg/cm2: 100%
  mortality at 5 µg/cm2: 100%
  pest or weed control at 50 µg/cm2: 50 to 100%
[2]
  mortality at 0.05 µg/cm2: 100%
  mortality at 0.5 µg/cm2: 100%
  mortality at 5 µg/cm2: 100%
  pest or weed control at 50 µg/cm2: 50 to 100%

## CC[C@H](NC(=O)CC(F)(F)F)NC(=O)c1ccc(/C(F)=C/C(c2cc(Cl)c(Cl)c(Cl)c2)C(F)(F)F)cc1C(F)(F)F (stereo partly drawn) [F35, 4-((Z)-1,4,4,4-Tetrafluoro-3-(3,4,5-trichlorophenyl)but-1-en-1-yl)-2-(trifluoromethyl)-N—((R)-1-(3,3,3-trifluoropropanamido)propyl)benzamide]
[1]
  pest or weed control at 50 µg/cm2: 50 to 100%
[2]
  pest or weed control at 50 µg/cm2: 50 to 100%

## C[C@H](NC(=O)CC(F)(F)F)NC(=O)c1ccc(/C(F)=C/C(c2ccc(Cl)c(Br)c2)C(F)(F)F)cc1C(F)(F)F (stereo partly drawn) [F37, 4-((Z)-3-(3-Bromo-4-chlorophenyl)-1,4,4,4-tetrafluorobut-1-en-1-yl)-2-(trifluoromethyl)-N—((R)-1-(3,3,3-trifluoropropanamido)ethyl)benzamide]
[1]
  pest or weed control at 50 µg/cm2: 50 to 100%
[2]
  pest or weed control at 50 µg/cm2: 50 to 100%
